Key:
[1] = Solubility of abiraterone decanoate in lipid-based vehicles at 25° C. (HPLC); format: physicochemical; conditions: for Solubility (mg/g) at 25° C.: Day 13 results; for Solb (mg/g) at 25° C.: average of day 2 and day 7
Experimental: In this example, solubility of abiraterone decanoate in the following four vehicles were tested. Each vehicle has a distinctive base, namely, medium chain trigylceride (MCT)/polyoxylglyceride, long chain (LC) monodiglyceride, and two propylene glycol (PG) monoesters, caprylic and lauryl. • Vehicle 1: MCT/Polyoxylglyceride based: 20% Kolliphor RH40/14% Plurol Oleique CC 497/33% Labrafil 1944 CS/33% Labrafac Lipophile WL 1349 • Vehicle 2: PG Monoester based: 20% Kolliphor RH 40/14% Plurol Oleique CC 497/66% Lauroglycol 90 • Vehicle 3: PG Monoester based: 20% Kolliphor RH40/14% Plurol Oleique CC 497/66% Capmul PG-8 • Vehicle 4: LC Monodiglyceride based: 20% Kolliphor RH40/14% Plurol Oleique CC 497/66% Maisine CC
Solubilities of abiraterone decanoate in different vehicles were tested following the procedure below: • Prepare 5 g of each vehicle by weight • In a 4-mL vial, weigh about 350 mg drug and then add 2 mL of vehicle • Sonicate and vortex all samples, then place on a rotator at 25° C. • At the end of the day check the samples to see if the drug completely dissolved. If so, use wax paper to transfer additional drug, record the additional amount added. • After 2-3 days, remove about 0.5 mL from each sample and filter using a microcentrifuge. […] Results were obtained for samples after 2 days and after 7 days.
The vehicles being tested have the following compositions: • Vehicle 1 (see Example 2): 20% Kolliphor RH40/14% Plurol Oleique CC 497/33% Labrafil 1944 CS/33% Labrafac Lipophile WL 1349, used as a control. • Vehicle 5: 20% Kolliphor RH40/14% Plurol Oleique CC 497/33% Maisine CC/33% Labrafac Lipophile WL 1349* • Vehicle 6: 20% Kolliphor RH40/14% Plurol Oleique CC 497/16% Labrafil 1944 CS/30% Maisine CC/20% Labrafac Lipophile WL 1349 • Vehicle 7: 20% Kolliphor RH40/14% Plurol Oleique CC 497/16% Labrafil 1944 CS/30% Capmul PG-8/20% Labrafac Lipophile WL 1349 • Vehicle 8: 20% Kolliphor RH40/14% Plurol Oleique CC 497/16% Labrafil 1944 CS/30% Capmul PG-12/20% Labrafac Lipophile WL 1349 • Vehicle 9: 20% Kolliphor RH40/14% Plurol Oleique CC 497/16% Labrafil 1944 CS/30% Labrafil M 2130 CS/20% Labrafac Lipophile WL 1349
The procedures for preparing samples and solubility testing are similar to those described in Example 2.

[2] = Forms A, B, and C

SMILES: CCCCCCCCCC(=O)O[C@H]1CC[C@@]2(C)C(=CC[C@@H]3[C@@H]2CC[C@]2(C)C(c4cccnc4)=CC[C@@H]32)C1 [abiraterone decanoate]
- solubility in lipid based vehicles (in words) ([1]; Examples 2 and 3): good solubilities
- Solubility (mg/g) at 25° C. ([1]; Vehicle 1 (control)): 101.1 mg/g
- Solb (mg/g) at 25° C. ([1]; Vehicle 1: 20% Kolliphor RH40/14% Plurol Oleique CC 497/33% Labrafil 1944 CS/33% Labrafac Lipophile WL 1349): 88.5 mg/g
- Solb (mg/g) at 25° C. ([1]; Vehicle 2: 20% Kolliphor RH 40/14% Plurol Oleique CC 497/66% Lauroglycol 90): 143.9 mg/g
- Solb (mg/g) at 25° C. ([1]; Vehicle 3: 20% Kolliphor RH40/14% Plurol Oleique CC 497/66% Capmul PG-8): 149.2 mg/g
- Solb (mg/g) at 25° C. ([1]; Vehicle 4: 20% Kolliphor RH40/14% Plurol Oleique CC 497/66% Maisine CC): 110.2 mg/g
- Solubility (mg/g) at 25° C. ([1]; Vehicle 5: 20% Kolliphor RH40/14% Plurol Oleique CC 497/33% Maisine CC/33% Labrafac Lipophile WL 1349): 111.5 mg/g
- Solubility (mg/g) at 25° C. ([1]; Vehicle 6: 20% Kolliphor RH40/14% Plurol Oleique CC 497/16% Labrafil 1944 CS/30% Maisine CC/20% Labrafac Lipophile WL 1349): 114.3 mg/g
- Solubility (mg/g) at 25° C. ([1]; Vehicle 7: 20% Kolliphor RH40/14% Plurol Oleique CC 497/16% Labrafil 1944 CS/30% Capmul PG-8/20% Labrafac Lipophile WL 1349): 141.2 mg/g
- Solubility (mg/g) at 25° C. ([1]; Vehicle 8: 20% Kolliphor RH40/14% Plurol Oleique CC 497/16% Labrafil 1944 CS/30% Capmul PG-12/20% Labrafac Lipophile WL 1349): 132.9 mg/g
- DVS Max H2O uptake (wt %) [2]: N/A - non-hygroscopic

— patent US20250025417A1, “ORAL ABIRATERONE FORMULATIONS” (PROPELLA THERAPEUTICS, INC., priority 2021, published 2025)
